Assay results from patent publication US9217163B2 (priority 2007, dated 2015).
Like-named read-outs stand apart in the source and are kept apart here.

Columns and labels:
[1] = test system: biological systems; conditions: Jones and Wood, 1986; cited from earlier work
[2] = test system: Clostridium beijerinckii ATCC 10132; conditions: butanol 1.5% to 3.5%, 37° C., 144 h
Description: The tolerance was tested in both, the un-optimized AnS medium and optimized AnS medium. The bottles were inoculated with Clostridium beijerinckii ATCC 10132 After inoculation, the medium was incubated at 37° C. for 144 h and the OD at 600 nm was monitored at a regular interval of 12 h.

CCCCO [butanol, n-butanol]
concentration at which butanol is highly toxic to biological systems [1]: 2%
butanol concentration tolerated (growth, OD 600 nm) ([2]; optimized AnS medium): ≤ 3.5%
butanol concentration tolerated (growth, OD 600 nm) ([2]; un-optimized AnS medium): up to 3.0%
